# Test results: publication PMC8916643, “Molecular physiology of pumiliotoxin sequestration in a poison frog” (PLoS ONE, 2022)
# Test: Alkaloid feeding experiment, alkaloid abundance in tissues by LC-MS/MS
# Format: in vivo, Dendrobates tinctorius
# Conditions: DHQ+PTX feeding group; fed orally daily for five days
# Description: Lab-reared (non-toxic) Dendrobates tinctorius were housed in terraria with live plants, a water pool, and a shelter. Ten adult females were size-matched, randomly assigned to control or experimental groups (N = 5 per group), and then housed individually. To measure the specific effects of PTX 251D compared to a background toxicity, the control group was fed 0.01% DHQ (Sigma-Aldrich, St. Louis, USA) in a solution of 1% EtOH and the experimental group was fed a solution of 0.01% DHQ and 0.01% PTX 251D (PepTech, Burlington, MA, USA) in a solution of 1% EtOH in water. Each frog was fed 15 μL each day for five days by pipetting the solution directly into the mouth between 10am-12pm. On the afternoon of the fifth day, frogs were euthanized by cervical transection and the dorsal skin, liver, intestines, and oocytes were dissected into Trizol (Thermo Fisher Scientific, Waltham, USA).
# To isolate alkaloids, 0.3 mL of 100% EtOH was added to 1mL of organic layer from the Trizol RNA extraction, inverted 10 times, and stored at room temperature for 2–3 minutes to precipitate genomic DNA, which was pelleted by centrifugation at 2000g for 5 minutes at 4°C. Then, 300 μL of supernatant was transferred to a new microfuge tube. Proteins were precipitated by adding 900 μL of acetone, mixing by inversion for 10–15 seconds, incubating at room temperature for 10 min, and centrifuging at max speed for 10 min at 4°C. Then, 1 mL of the supernatant containing alkaloids was moved into a glass vial and stored at -20°C until dried down completely under a gentle nitrogen gas flow.
# Samples were resuspended in 200 μl of methanol:chloroform 1:1 and 1 μM Nicotine-d3 (used as an internal standard). A 10-point standard curve was prepared in the same solution with DHQ and PTX 251D. A QE+ mass spectrometer coupled to an Ultimate3000 LC (ThermoFisher) was used for analysis. […] The gradient was 0% B for 1 min, then increased to 100% B in 14 min, followed by 5 min at 100% B and 3.5 min at 0% B. Data were quantified using accurate mass, using the standard curve for DHQ and PTX 251D for absolute quantification. aPTX 267A was identified by accurate mass and MS/MS fragmentation similarity to PTX.
# R version 3.6.3 was used for all statistical analyses, and all plotting and statistics code is provided in a S1 File. There were instances in the LC-MS/MS data where the molecules of interest (DHQ, PTX 251D, or aPTX 267A) were not detected, and these were converted to zeros prior to statistical analyses and visualization. […] PTX 251D and DHQ were analyzed separately. The abundance of aPTX 267A was approximated using the area-under-the-curve divided by the internal nicotine standard, and as there is no standard for aPTX 267A, exact pmol values could not be calculated. […]
smiles,measurement,value
"CCCCC(C)C=C1CN2CCCC2C(C)(O)C1 (stereo not shown) [PTX 251D, pumiliotoxin (PTX 251D)]",PTX 251D abundance by tissue and treatment,highest levels in the liver and skin
